Data taken from PMC6095626, “Screening of the Pathogen Box for inhibitors with dual efficacy against Giardia lamblia and Cryptosporidium parvum” (PLoS Neglected Tropical Diseases, 2018).
pEC50: −log10 of the molar value.

How the values were obtained:
[1] = tested on: C. parvum (UGA1 Nluc expressing strain in HCT-8 cells); test: microbe, parasite or virus in culture; assay type: cell-based, Cryptosporidium parvum; conditions: for Crypto (10 uM) Mean % inhibition: initial Pathogen Box screen, single concentration 10 µM, inhibition compared to DMSO wells
Outline: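 Parasite growth quantified by NanoLuc luminescence from lysed infected HCT-8 cells, with EC50 fitted from dose curves. Compounds, single-dose 10 μM or serially diluted, were added to confluent 48 h monolayers before infection with bleached UGA1 Nluc oocysts.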

[2] = tested on: G. lamblia trophozoites (luciferase expressing, WBC6); test: microbe, parasite or virus in culture; assay type: cell-based, Giardia lamblia; conditions: for Giardia (16 uM) Mean % inhibition: initial Pathogen Box screen, single concentration 16 µM, inhibition compared to DMSO wells
Outline: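 Incubation ran 24 h at 37 °C under anaerobic conditions, with compound added in equal volume to trophozoites (WBC6, luciferase-expressing, 250,000 cells/mL). Bioluminescence was the read-out, cross-checked by MOXI Z counts on a duplicate plate; metronidazole served as control (1:2 dilutions from 40 μM).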

Structure (SMILES): Cc1cnc(N2CCN[C@@H](Cc3ccccc3)C2)nc1Oc1ccc(-n2ccnc2)cc1 [MMV687765]
- Crypto (10 uM) Mean % inhibition [1]: 39%
- Giardia (16 uM) Mean % inhibition [2]: 49%

Structure (SMILES): CC(C)(C)n1nc(Cc2cccc3ccccc23)c2c(N)ncnc21 [MMV676599]
- Crypto (10 uM) Mean % inhibition [1]: 86%
- Giardia (16 uM) Mean % inhibition [2]: 21%

Structure (SMILES): COc1cc(CN2CCC3(C=Cc4ccccc43)CC2)cc2c1OCO2 [MMV688941]
- Crypto (10 uM) Mean % inhibition [1]: 56%
- Giardia (16 uM) Mean % inhibition [2]: 62%

Structure (SMILES): CC(C)(CN)c1nc(-c2ccc(Cl)c(O)c2)c(-c2ccnc(N)n2)[nH]1 [MMV030734]
- Crypto (10 uM) Mean % inhibition [1]: X* (Mean or standard deviation are negative but not significantly different from the control to be a growth promoter)
- Giardia (16 uM) Mean % inhibition [2]: 35%

Structure (SMILES): Cc1cc(C2=NOC(c3cc(Cl)c(F)c(Cl)c3)(C(F)(F)F)C2)ccc1C(=O)NCc1ccc2c(c1)C(C)(C)OB2O (stereo not shown) [MMV687776]
- Crypto (10 uM) Mean % inhibition [1]: 83%
- Giardia (16 uM) Mean % inhibition [2]: 27%

Structure (SMILES): Cc1cc(=O)[nH]c(-n2nc(C)cc2C)n1 [MMV393995]
- Crypto (10 uM) Mean % inhibition [1]: 86%
- Giardia (16 uM) Mean % inhibition [2]: X* (Mean or standard deviation are negative but not significantly different from the control to be a growth promoter)

Structure (SMILES): O=C1[C@@H](Oc2ccccc2)[C@@H](c2ccc(Cl)cc2)N1CCn1cnc2c(NCc3ccccc3)ncnc21 [MMV688352]
- Crypto (10 uM) Mean % inhibition [1]: X* (Mean or standard deviation are negative but not significantly different from the control to be a growth promoter)
- Giardia (16 uM) Mean % inhibition [2]: 41%

Structure (SMILES): Nc1ncc(Br)cc1-c1nc2cc(Cl)cnc2[nH]1 [MMV676358]
- Crypto (10 uM) Mean % inhibition [1]: X* (Mean or standard deviation are negative but not significantly different from the control to be a growth promoter)
- Giardia (16 uM) Mean % inhibition [2]: 90%

Structure (SMILES): CC(C)(C)OC(=O)N1CCN(c2cc(-c3ccc(Oc4ccccc4)cc3)n[nH]2)CC1 [MMV676057]
- Crypto (10 uM) Mean % inhibition [1]: X* (Mean or standard deviation are negative but not significantly different from the control to be a growth promoter)
- Giardia (16 uM) Mean % inhibition [2]: 52%

Structure (SMILES): Cc1cc(OCC(=O)Nc2ccc(C(C)C)cc2)n(C)c(=O)c1C#N [MMV1198433]
- Crypto (10 uM) Mean % inhibition [1]: 52%
- Giardia (16 uM) Mean % inhibition [2]: 10%

Structure (SMILES): O=C(Nc1ccc2c(c1)B(O)OC2)c1ccccc1C(F)(F)F [MMV652003]
- Crypto (10 uM) Mean % inhibition [1]: 94%
- Giardia (16 uM) Mean % inhibition [2]: 14%

Structure (SMILES): CCN(CC)S(=O)(=O)c1ccc(Cl)c(C(=O)Nc2ccc3nc(C)sc3c2)c1 [MMV019721]
- Crypto (10 uM) Mean % inhibition [1]: 82%
- Giardia (16 uM) Mean % inhibition [2]: 15%

Structure (SMILES): Cc1nnc(NC(=O)c2cn(-c3ccccc3)nc2-c2ccccc2C)o1 [MMV020320]
- Crypto (10 uM) Mean % inhibition [1]: 91%
- Giardia (16 uM) Mean % inhibition [2]: X* (Mean or standard deviation are negative but not significantly different from the control to be a growth promoter)

Structure (SMILES): O=C(Nc1nc(-c2ccccn2)cs1)c1cncn1-c1ccccc1 [MMV676512]
- Crypto (10 uM) Mean % inhibition [1]: 93%
- Giardia (16 uM) Mean % inhibition [2]: 10%

Structure (SMILES): CN(C(=O)c1cc2c(-c3cncnc3)cccc2[nH]1)c1ccccc1 [MMV024443]
- Crypto (10 uM) Mean % inhibition [1]: 87%
- Giardia (16 uM) Mean % inhibition [2]: X* (Mean or standard deviation are negative but not significantly different from the control to be a growth promoter)

Structure (SMILES): COc1ccc(OC)c(NCc2ccc3nc(N)nc(N)c3c2Cl)c1 [MMV675968]
- C. parvum cell growth inhibition in the initial screen ([1]; 10 μM, 48 hours): 88%
- pEC50 ([1]; Nluc C. parvum in HCT-8 cells, 48 hours, read-out: C. parvum EC50): 5.68
- G. lamblia inhibition of parasite growth in the initial screen ([2]; 16 μM, 24 hours): 90%
- G. lamblia EC50 ([2]; luciferase expressing G. lamblia trophozoites, 24 hours, D-luciferin bioluminescence read-out): not potent
- pEC50 ([2]; luciferase expressing G. lamblia trophozoites, 24 hours, D-luciferin bioluminescence read-out, read-out: G. lamblia EC50): < 5.00

Structure (SMILES): COc1ccc2nc(C)cc(OCC(=O)Nc3ccccc3OC)c2c1 [MMV687188]
- Crypto (10 uM) Mean % inhibition [1]: 38%
- Giardia (16 uM) Mean % inhibition [2]: 28%

Structure (SMILES): Cc1nc(-c2ccccn2)nc(N2CCC(Cc3ccccc3)C2)c1Cl (stereo not shown) [MMV659004]
- Crypto (10 uM) Mean % inhibition [1]: 66%
- Giardia (16 uM) Mean % inhibition [2]: 13%

Structure (SMILES): COc1cc(C2=NCCN2)cc2cc(-c3ccc(C4=NCCN4)cc3)oc12 [MMV688362]
- Crypto (10 uM) Mean % inhibition [1]: 67%
- Giardia (16 uM) Mean % inhibition [2]: 54%

Structure (SMILES): c1ccc(Oc2ccc(-c3cc(N4CCOCC4)n[nH]3)cc2)cc1 [MMV045105]
- Crypto (10 uM) Mean % inhibition [1]: 19%
- Giardia (16 uM) Mean % inhibition [2]: 16%

Structure (SMILES): CNC(=O)c1cc(S(=O)(=O)N2CCN(c3ccccn3)CC2)cs1 [MMV020136]
- Crypto (10 uM) Mean % inhibition [1]: X* (Mean or standard deviation are negative but not significantly different from the control to be a growth promoter)
- Giardia (16 uM) Mean % inhibition [2]: X* (Mean or standard deviation are negative but not significantly different from the control to be a growth promoter)

Structure (SMILES): CNC(=O)C1Cc2c([nH]c3cc(Cl)ccc23)C2(CCN(CCc3ccccc3)CC2)N1 (stereo not shown) [MMV031011]
- Crypto (10 uM) Mean % inhibition [1]: 72%
- Giardia (16 uM) Mean % inhibition [2]: 81%

Structure (SMILES): CC(C)(C)n1nc(-c2ccccc2)c2c(N)ncnc21 [MMV688548]
- Crypto (10 uM) Mean % inhibition [1]: 94%
- Giardia (16 uM) Mean % inhibition [2]: 63%

Structure (SMILES): CC1(C)Cc2c(c(N3CCOCC3)nc3snc(Br)c23)CO1 [MMV687794]
- Crypto (10 uM) Mean % inhibition [1]: X* (Mean or standard deviation are negative but not significantly different from the control to be a growth promoter)
- Giardia (16 uM) Mean % inhibition [2]: 17%

Structure (SMILES): Cc1nc(-c2ccccn2)nc(NCCc2ccc(S(C)(=O)=O)cc2)c1Cl [MMV658993]
- Crypto (10 uM) Mean % inhibition [1]: X* (Mean or standard deviation are negative but not significantly different from the control to be a growth promoter)
- Giardia (16 uM) Mean % inhibition [2]: 11%

Structure (SMILES): Clc1ccc(CN2CCN(C3=NCCN3)CC2)cc1Cl [MMV689060]
- Crypto (10 uM) Mean % inhibition [1]: 50%
- Giardia (16 uM) Mean % inhibition [2]: X* (Mean or standard deviation are negative but not significantly different from the control to be a growth promoter)

Structure (SMILES): CNCC[C@H](Oc1ccc(C(F)(F)F)cc1)c1ccccc1 [MMV001561]
- Crypto (10 uM) Mean % inhibition [1]: X* (Mean or standard deviation are negative but not significantly different from the control to be a growth promoter)
- Giardia (16 uM) Mean % inhibition [2]: 15%

Structure (SMILES): Cc1ccc(NC(=O)c2nc[nH]c2C(=O)Nc2nc3ccccc3[nH]2)c(C)c1 [MMV011903]
- Crypto (10 uM) Mean % inhibition [1]: 62%
- Giardia (16 uM) Mean % inhibition [2]: 21%

Structure (SMILES): O=C(Nc1cccc(-c2ccc(NCCCN3CCCC3)nc2)c1)c1ccccc1 [MMV023953]
- Crypto (10 uM) Mean % inhibition [1]: X* (Mean or standard deviation are negative but not significantly different from the control to be a growth promoter)
- Giardia (16 uM) Mean % inhibition [2]: 82%

Structure (SMILES): CS(=O)(=O)N1CCC(Cn2nc(Cc3cccc4ccccc34)c3c(N)ncnc32)CC1 [MMV676050]
- Crypto (10 uM) Mean % inhibition [1]: 79%
- Giardia (16 uM) Mean % inhibition [2]: 18%

Structure (SMILES): O=S(=O)(c1ccc(Cl)cc1)N1CCN(C(=S)NCc2ccco2)CC1 [MMV000858]
- Crypto (10 uM) Mean % inhibition [1]: 41%
- Giardia (16 uM) Mean % inhibition [2]: 3%

Structure (SMILES): O=C(NCc1ccco1)N1CCN(Cc2ccc(Cl)s2)CC1 [MMV688555]
- Crypto (10 uM) Mean % inhibition [1]: X* (Mean or standard deviation are negative but not significantly different from the control to be a growth promoter)
- Giardia (16 uM) Mean % inhibition [2]: 34%

Structure (SMILES): CCCn1c(CNc2ccccc2O)nc2ccccc21 [MMV676445]
- Crypto (10 uM) Mean % inhibition [1]: X* (Mean or standard deviation are negative but not significantly different from the control to be a growth promoter)
- Giardia (16 uM) Mean % inhibition [2]: 13%

Structure (SMILES): CNc1snc(C)c1C(=O)NCCOc1ccc(OC)cc1 [MMV688554]
- Crypto (10 uM) Mean % inhibition [1]: X* (Mean or standard deviation are negative but not significantly different from the control to be a growth promoter)
- Giardia (16 uM) Mean % inhibition [2]: X* (Mean or standard deviation are negative but not significantly different from the control to be a growth promoter)

Structure (SMILES): Cc1cc(NCCc2ccccc2)nc(NC(=N)Nc2ccc(Cl)cc2)n1 [MMV021660]
- Crypto (10 uM) Mean % inhibition [1]: X* (Mean or standard deviation are negative but not significantly different from the control to be a growth promoter)
- Giardia (16 uM) Mean % inhibition [2]: 90%

Structure (SMILES): OCc1ccc(-c2cncc(Nc3cccc(Cl)c3)c2)cc1 [MMV026468]
- Crypto (10 uM) Mean % inhibition [1]: X* (Mean or standard deviation are negative but not significantly different from the control to be a growth promoter)
- Giardia (16 uM) Mean % inhibition [2]: 39%

Structure (SMILES): CN(C)CCNC(=O)N1CCCN(c2ncnc3cc(-c4ccccc4)sc23)CC1 [MMV024195]
- Crypto (10 uM) Mean % inhibition [1]: 15%
- Giardia (16 uM) Mean % inhibition [2]: 31%

Structure (SMILES): COc1ccc(C2=NCCN2)cc1-c1cn(-c2cccc(C3=NCCN3)c2)nn1 [MMV688547]
- Crypto (10 uM) Mean % inhibition [1]: 45%
- Giardia (16 uM) Mean % inhibition [2]: 33%

Structure (SMILES): Cc1cc(Nc2ccc(C(F)(F)F)cc2)n2ccnc2n1 [MMV011229]
- Crypto (10 uM) Mean % inhibition [1]: X* (Mean or standard deviation are negative but not significantly different from the control to be a growth promoter)
- Giardia (16 uM) Mean % inhibition [2]: 35%

Structure (SMILES): CCN(CC)CCCN1CCN(C(=O)c2cccc(-c3noc(C(F)(F)F)n3)c2)CC1 [MMV022236]
- Crypto (10 uM) Mean % inhibition [1]: 38%
- Giardia (16 uM) Mean % inhibition [2]: 8%

Structure (SMILES): COc1cccc(-c2cc3c(Nc4cccnc4)nccc3[nH]2)c1 [MMV392832]
- Crypto (10 uM) Mean % inhibition [1]: 68%
- Giardia (16 uM) Mean % inhibition [2]: 50%

Structure (SMILES): CC(Oc1cccc(Cl)c1)C(=O)Nc1ccc2oc(-c3ccncc3)nc2c1 (stereo not shown) [MMV688472]
- Crypto (10 uM) Mean % inhibition [1]: X* (Mean or standard deviation are negative but not significantly different from the control to be a growth promoter)
- Giardia (16 uM) Mean % inhibition [2]: 55%

Structure (SMILES): Cc1cc(C)c2cc(C(=O)NC3CCCCCCC3)[nH]c2c1 [MMV687146]
- Crypto (10 uM) Mean % inhibition [1]: 33%
- Giardia (16 uM) Mean % inhibition [2]: 15%

Structure (SMILES): CC(C)C(C(=O)Nc1ccc(S(=O)(=O)N(C)C)cc1)c1ccc(Cl)cc1 (stereo not shown) [MMV020391]
- Crypto (10 uM) Mean % inhibition [1]: 67%
- Giardia (16 uM) Mean % inhibition [2]: 8%
